Patent US20220332764A1, “T CELL EPITOPES OF HCMV AND USES OF THEREOF” (EBERHARD KARLS UNIVERSITÄT TÜBINGEN, priority 2019, published 2022)

Test system: PBMCs of healthy HCMV-seropositive donors
Assay: IFNγ ELISpot after 12 day stimulation (memory T-cell response)
Assay type: cell-based, human
Conditions: for % Positive donors (after 12 days of stimulation): IFNγ ELISpot, HLA-matched seropositive donors; for Positive donors as tested: positive / tested HLA-matched seropositive donors, positive: >10 spots/well and at least 3-fold negative control
From the text: PHA was used as positive control.

Sequence	% Positive donors (after 12 days of stimulation)	Positive donors as tested
GLDQYLESV (listed as Human cytomegalovirus) [SEQ ID NO: 18]	7.8%	1/13
MPVTHPPEV (listed as Human cytomegalovirus) [SEQ ID NO: 95]	13.3%	2/15
VTDPEHLMM (listed as Human cytomegalovirus) [SEQ ID NO: 64]	14.3%	2/14
IPDYRSVSL (listed as Human cytomegalovirus) [SEQ ID NO: 34]	22.2%	4/18
RLADVLIKR (listed as Human cytomegalovirus) [SEQ ID NO: 77]	15.4%	2/13
SVSSAPLNK (listed as Human cytomegalovirus) [SEQ ID NO: 79]	7.1%	1/14
TPLLKRLPL (listed as Human cytomegalovirus) [SEQ ID NO: 82]	28.6%	4/14
ALLGRLYFI (listed as Human cytomegalovirus) [SEQ ID NO: 19]	6.7%	1/15
VPAAVYTTV (listed as Human cytomegalovirus) [SEQ ID NO: 93]	33.3%	5/15
REQAAIPQIY (listed as Human cytomegalovirus) [SEQ ID NO: 50]	6.3%	1/16
RSVRLPYMYK (listed as Human cytomegalovirus) [SEQ ID NO: 78]	13.3%	2/15
RVYAYDTREK (listed as Human cytomegalovirus) [SEQ ID NO: 72]	36.4%	4/11
TSETHFGNY (listed as Human cytomegalovirus) [SEQ ID NO: 59]	20.0%	3/15
RVDPNLRNR (listed as Human cytomegalovirus) [SEQ ID NO: 74]	33.3%	5/15
APFGRVSV (listed as Human cytomegalovirus) [SEQ ID NO: 35]	20.0%	3/15
VTDYGNVAFKY (listed as Human cytomegalovirus) [SEQ ID NO: 61]	18.8%	3/16
APNYRQVEL (listed as Human cytomegalovirus) [SEQ ID NO: 37]	16.7%	2/12
IPHNWFLQV (listed as Human cytomegalovirus) [SEQ ID NO: 92]	33.3%	5/15
FPAHDWPEV (listed as Human cytomegalovirus) [SEQ ID NO: 94]	13.3%	2/15
SPHPPTSVFL (listed as Human cytomegalovirus) [SEQ ID NO: 33]	25.0%	3/12

Sequence	% Positive donors (after 12 days of stimulation)	Positive donors as tested
YTSRGALYLY (listed as Human cytomegalovirus) [SEQ ID NO: 58]	21.4%	3/14
FPDATVPATV (listed as Human cytomegalovirus) [SEQ ID NO: 96]	6.7%	1/15
ALSPSTSKV (listed as Human cytomegalovirus) [SEQ ID NO: 9]	23.5%	4/17
SESLVAKRY (listed as Human cytomegalovirus) [SEQ ID NO: 48]	10.0%	1/10
ALFNQLVFTA (listed as Human cytomegalovirus) [SEQ ID NO: 16]	13.3%	2/15
LLDELGAVFGY (listed as Human cytomegalovirus) [SEQ ID NO: 62]	15.4%	2/13
ALYPEYIYTV (listed as Human cytomegalovirus) [SEQ ID NO: 14]	16.7%	3/18
LYVGQFLAY (listed as Human cytomegalovirus) [SEQ ID NO: 21]	25.0%	3/12
KLGGALQAK (listed as Human cytomegalovirus) [SEQ ID NO: 70]	40.0%	6/15
ISENGNLQVTY (listed as Human cytomegalovirus) [SEQ ID NO: 63]	15.0%	3/20
DLDFGDLLKY (listed as Human cytomegalovirus) [SEQ ID NO: 65]	12.5%	2/16
EEATALGREL (listed as Human cytomegalovirus) [SEQ ID NO: 47]	10.0%	1/10
YSDRRDHVWSY (listed as Human cytomegalovirus) [SEQ ID NO: 66]	6.3%	1/16
RENAGVALY (listed as Human cytomegalovirus) [SEQ ID NO: 45]	19.1%	4/21
IPVERQAL (listed as Human cytomegalovirus) [SEQ ID NO: 36]	16.7%	2/12
FFPKLQGNY (listed as Human cytomegalovirus) [SEQ ID NO: 23]	16.7%	2/12
FVEGPGFMRY (listed as Human cytomegalovirus) [SEQ ID NO: 56]	35.7%	5/14
GSDALPAGLY (listed as Human cytomegalovirus) [SEQ ID NO: 60]	18.8%	3/16
APYLRDTL (listed as Human cytomegalovirus) [SEQ ID NO: 39]	5.3%	1/19
TILDKILNV (listed as Human cytomegalovirus) [SEQ ID NO: 11]	20.0%	4/20

Sequence	% Positive donors (after 12 days of stimulation)	Positive donors as tested
QLRSVIRAL (listed as Human cytomegalovirus) [SEQ ID NO: 85]	14.3%	2/14
IAIPHFMVV (listed as Human cytomegalovirus) [SEQ ID NO: 91]	33.3%	5/15
RVSQPSLIL (listed as Human cytomegalovirus) [SEQ ID NO: 32]	26.7%	4/15
GLNERLLSV (listed as Human cytomegalovirus) [SEQ ID NO: 15]	15.0%	3/20
LPYLSAERTV (listed as Human cytomegalovirus) [SEQ ID NO: 97]	6.7%	1/15
IPMTFVDRDSL (listed as Human cytomegalovirus) [SEQ ID NO: 30]	35.7%	5/14
VMKFKETSF (listed as Human cytomegalovirus) [SEQ ID NO: 81]	–	5/13
HLKLRPATF (listed as Human cytomegalovirus) [SEQ ID NO: 83]	23.1%	3/13
FTDNVRFSV (listed as Human cytomegalovirus) [SEQ ID NO: 17]	7.8%	1/13
IPPPQIPFV (listed as Human cytomegalovirus) [SEQ ID NO: 90]	40.0%	6/15
SVRLPYMYK (listed as Human cytomegalovirus) [SEQ ID NO: 75]	25.0%	4/16
NYNEQHYRY (listed as Human cytomegalovirus) [SEQ ID NO: 20]	–	5/13
MLRLLFTL (listed as Human cytomegalovirus) [SEQ ID NO: 86]	7.1%	1/14
SLYEANPEL (listed as Human cytomegalovirus) [SEQ ID NO: 10]	23.5%	4/17
AEPNFPKNVW (listed as Human cytomegalovirus) [SEQ ID NO: 46]	14.3%	2/14
TLINGVWVV (listed as Human cytomegalovirus) [SEQ ID NO: 12]	–	2/11
SFFPKLQGNY (listed as Human cytomegalovirus) [SEQ ID NO: 22]	22.2%	2/9
GLLAHIPAL (listed as Human cytomegalovirus) [SEQ ID NO: 13]	–	2/11
FISSKHTL (listed as Human cytomegalovirus) [SEQ ID NO: 84]	21.4%	3/14
GVSSVTLLK (listed as Human cytomegalovirus) [SEQ ID NO: 73]	35.7%	5/14
